Patent publication US12358918B2, “Aryl hydrocarbon receptor (AHR) activator compounds as cancer therapeutics” (THE BROAD INSTITUTE, INC., priority 2018, dated 2025)

Tests used:
[1] = target: recombinant human Adenosine A2A (FAST-002C) receptor (Homo sapiens, UniProt P29274); test: cAMP HTRF assay, Adenosine A2A receptor, antagonist mode; type: cell-based
[2] = target: T1, recombinant human Adenosine A3 (FAST-004C) receptor (Homo sapiens, UniProt P0DMS8); test: cAMP HTRF assay, Adenosine A3 receptor, antagonist mode; type: cell-based
T1 sequence (P0DMS8 1-318): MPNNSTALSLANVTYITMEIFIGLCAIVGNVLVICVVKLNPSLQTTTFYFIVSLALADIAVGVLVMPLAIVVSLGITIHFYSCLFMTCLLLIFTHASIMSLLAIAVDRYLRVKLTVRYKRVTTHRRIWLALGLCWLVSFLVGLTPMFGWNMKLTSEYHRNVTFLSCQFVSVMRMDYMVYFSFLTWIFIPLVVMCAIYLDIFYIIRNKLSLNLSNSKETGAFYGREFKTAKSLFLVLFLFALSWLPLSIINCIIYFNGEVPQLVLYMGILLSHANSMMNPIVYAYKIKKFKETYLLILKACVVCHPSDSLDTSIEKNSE

[3] = test system: Twelve different breast cancer cell lines; test: adenosine receptor antagonists and agonists dosed on twelve breast cancer cell lines; type: cell-based; settings: 32 adenosine receptor antagonists/agonists compared; FIG. 6B
[4] = test system: MDA-MB-468 breast cancer cells; test: Western immunoblot of treated cells over 24 hours; type: cell-based; settings: FIG. 18
Protocol: Adherent cells were washed once with cold 1×PBS (Corning #01018002) and lysed with RIPA buffer (Sigma #R0278) supplemented by protease and phosphatase inhibitors (Sigma). Protein content was quantified using the DC Protein Assay (BioRad #5000111). Samples were reduced with (loading buffer) and boiled at 95° C. before being resolved by SDS gel electrophoresis on 4-20% Tris/glycine gels (Invitrogen). Proteins were transferred using the IBlot2 (Thermo #IB21001) onto the iBlot™ 2 nitrocellulose Transfer Stacks (Thermo #IB23001). The membranes were then blocked in Odyssey Blocking Buffer (Li-COR #927-40000) for one hour, and then probed overnight with primary antibodies diluted in blocking buffer. The following day, membranes were washed 3×5 mins with 1×TBST and then probed with LiCOR Infrared secondary antibodies for 1 hour at room temperature. Membranes were washed an additional 3×5 mins in 1×TBST and then imaged using the LiCOR Imager. […]

[5] = test system: ZR-75-1 and MDA-MB-468 cells harboring an AGR2 knockout; settings: CRISPR-Cas9 AGR2 knockout; FIGS. 10A-10D
[6] = test system: MDA-MB-468 and ZR-75-1 cell lines; settings: AHR sg3 / AHR sg4 knockout vs GFP sg1 or parental Cas9; FIGS. 13A and 13B
[7] = target: T2, recombinant human Adenosine A2B (FAST-003C) receptor (Homo sapiens, UniProt P29275); test: cAMP HTRF assay, Adenosine A2B receptor, antagonist mode; parameters: inhibition: dose or concentration left out as unconfirmed
T2 sequence (P29275 1-332): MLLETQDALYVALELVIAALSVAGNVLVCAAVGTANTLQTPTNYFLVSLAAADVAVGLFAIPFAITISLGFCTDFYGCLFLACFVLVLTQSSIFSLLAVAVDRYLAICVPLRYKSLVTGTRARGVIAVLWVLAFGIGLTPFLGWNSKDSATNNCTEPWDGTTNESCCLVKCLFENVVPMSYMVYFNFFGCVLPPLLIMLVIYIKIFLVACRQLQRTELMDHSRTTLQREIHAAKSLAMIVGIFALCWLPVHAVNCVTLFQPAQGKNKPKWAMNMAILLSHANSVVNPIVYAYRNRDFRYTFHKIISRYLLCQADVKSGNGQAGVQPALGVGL

[8] = HEK293, read-out: % Inhibition Average at maximal concentration
[9] = antagonist mode dose-response fit

Sequence of recombinant human Adenosine A2A (FAST-002C) receptor (P29274 whole entry): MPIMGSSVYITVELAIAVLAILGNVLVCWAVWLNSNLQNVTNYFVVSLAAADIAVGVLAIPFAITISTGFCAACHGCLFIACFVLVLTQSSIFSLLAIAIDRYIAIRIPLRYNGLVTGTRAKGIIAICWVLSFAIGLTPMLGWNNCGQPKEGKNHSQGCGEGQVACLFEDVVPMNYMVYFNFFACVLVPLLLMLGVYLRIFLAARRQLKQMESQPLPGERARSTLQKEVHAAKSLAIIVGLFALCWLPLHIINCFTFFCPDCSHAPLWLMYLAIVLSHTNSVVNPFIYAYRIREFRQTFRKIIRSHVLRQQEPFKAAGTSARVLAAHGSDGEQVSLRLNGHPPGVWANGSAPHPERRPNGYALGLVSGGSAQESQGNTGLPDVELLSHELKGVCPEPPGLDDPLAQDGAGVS

**Q.** `Nc1nc2ccc(Cl)cc2c2nc(-c3ccco3)nn12` [CGS-15943, reference compound] was tested. Which inhibition at 10 µM [1, 8] did it give?
**A.** The inhibition at 10 µM was 125%.

**Q.** What about the “Hill Coefficient” value [1, 9] of the same compound?
**A.** The value was 1.25.

**Q.** And the inhibition at 10 µM ([2]; CHO-K1, read-out: % Inhibition Average at maximal concentration)?
**A.** Its inhibition at 10 µM is 68.9%.

**Q.** And the “Hill Coefficient” value [2, 9]?
**A.** Its value is 1.66.

**Q.** What about the IC50 ([2]; antagonist mode, CHO-K1, reference agonist IB-MECA) of the same compound?
**A.** The IC50 was 2090 nM.

**Q.** What about the “cytotoxicity to breast cancer cell lines” value [3] of the same compound?
**A.** The value was “cytotoxic”.

**Q.** And the CYP1A1 expression ([4]; 24 hour time course)?
**A.** The CYP1A1 expression was “induced CYP1A1 expression”.

**Q.** And the FOXA1 levels ([4]; 24 hour time course)?
**A.** The FOXA1 levels was “maintenance of FOXA1 levels”.

**Q.** What about the “DNA double stranded breaks (pH2A.X) and PARP cleavage” value ([4]; within 24 hours) of the same compound?
**A.** The value was “induced DNA double stranded breaks and PARP cleavage”.

**Q.** What about the “rescue of cytotoxicity by AGR2 knockout” value [5] of the same compound?
**A.** The value was “not rescued by AGR2 knockout”.

**Q.** And the “dependence of cytotoxic activity on AHR” value [6]?
**A.** Its value is “required intact AHR expression”.

**Q.** And the inhibition [7, 8]?
**A.** Its inhibition is 120%.

**Q.** What about the “Hill Coefficient” value [7, 9] of the same compound?
**A.** The value was 1.75.
